Measured values: patent US20250177530A1, “MOLECULES THAT BIND TO ENPP1 POLYPEPTIDES” (UNIVERSITY OF PITTSBURGH - OF THE COMMONWEALTH SYSTEM OF …, priority 2022, published 2025)
Non-standard residues stand in square brackets, D forms with d. Residues, ends and D or L forms follow the SMILES beside them. *: point of attachment. Dolaproine = CO[C@@H]([C@@H]1CCCN1)[C@@H](C)C(=O)O; Dil = CC[C@H](C)[C@H](NC)[C@@H](CC(=O)O)OC; X1 = C[C@@H](N*)[C@@H](O)c1ccccc1; NMeV = CN[C@H](C(=O)O)C(C)C

Assays:
Assay in all cases: ADC cytotoxicity (Cell Titer-Glo cell viability)
Assay type in all cases: cell-based
293T-ENPP1 cells = test system: 293T-ENPP1 cells
Description: (§1) The cell-killing activity of anti-ENPP1 CAR^+ T cells and BiTEs were measured by LDH-Glo cytotoxicity assay kit (Promega, Madison, WI, USA). For the cell-killing activity of anti-ENPP1 CAR^+ T cells, control T cells or CAR^+ T cells as effector cells were incubated with 293T, 293T-ENPP1, and HepG2 target cells (5×10^3 cells/well in 96-well plate) separately at indicated E:T ratio for 24 hours at 37° C. For the cell-killing activity of BiTEs, target cells (1×10^4 cells/well) were mixed with serially diluted BiTEs in 50 μL of growth medium, and […] activated T cells were added at the ET ratio 10:1 and cultured for 24 hours at 37° C. in 5% CO2 humidified atmosphere. Controls for the calculation of percentage cytotoxicity were performed according to the manufacturer's instructions. The calculation of relative % cytotoxicity as follows: relative % cytotoxicity=100×(Experimental LDH release-medium background)/(target and effector maximum LDH release control-medium background). For the cell-killing activity of ADC, 293T, 293T-ENPP1, and HepG2 cells were seeded at 2000 cells/well in 96-well white plate and incubated overnight at 37° C. in 5% CO2. Serial diluted anti-ENPP1 ADC was added and cultured for 4 days at 37° C. in 5% CO2. Images were captured under a 4×objective microscope (Olympus microscope, Westborough, MA, USA). Controls with cells only were used for calculation of percent relative cell viability. At the end of the time point, the Cell Titer-Glo Luminescent cell viability assay kit (Promega) was used to measure the cell viability. The calculation of % Relative cell viability was as follows: % Relative cell viability=100×(Experimental luminescence values-medium Background)/(Control luminescence values-medium Background). For ADCC, the ADCC reporter bioassay complete kit (Promega) was used, the experiment was performed following the manufacturer's instructions. The 293T-ENPP1 cell line was used as target cell.

HepG2 cells = details: 200 nM
Description: as §1

293T cells = test system: 293T cells
Description: as §1

Structure (SMILES): CC[C@H](C)[C@@H]([C@@H](CC(=O)N1CCC[C@H]1[C@H](OC)[C@@H](C)C(=O)N[C@H](C)[C@@H](O)c1ccccc1)OC)N(C)C(=O)[C@@H](NC(=O)[C@@H](NC)C(C)C)C(C)C [MMAE, monomethyl auristatin E, reference compound] (H-[NMeV]V[Dil][Dolaproine]-X1)
- killing at 200 nM (293T-ENPP1 cells): non-specific killing
- killing effects of free MMAE and ADC compared (HepG2 cells): comparable
- killing at 200 nM (293T cells; 200 nM): non-specific killing
- killing at lower concentrations (293T cells; concentrations below 200 nM): no non-specific killing
